Where “and” joins values, the source holds several entries; their conditions need not be identical. Equal values may be shown once. Read-outs that look alike come from different tables or passages of the source. A value given as a limit tells only on which side of the number the result lay.

The target of series [1] is T1, HIV-1 RT (Human immunodeficiency virus type 1 group M subtype B, UniProt P04585).
T1 construct: Recombinant reverse transcriptase protein obtained through the NIH AIDS Reagent Program; purchased NIH AIDS Reagent Program, Division of AIDS, NIAID, NIH
The series can be described thus: RESTRICT assay with TFV-DP spiked in diluted whole blood (0.25% final). The class given is biochemical. The conditions noted are these: 0.25% blood, 100 nM dNTP, N = 4.
Description: [sequence] assays were conducted with TFV-DP (166403-66-3, BOC Sciences Inc.) using 5 μL of DNA template, 5 μL of primer, 20 μL of dNTPs solution, 5 μL of TFV-DP, and 5 μL of HIV-1 RT. […] Serial dilutions of TFV-DP in buffer spanning a concentration range of 1-10,000 nM were prepared to span two orders of magnitude above and below the clinically relevant range for adherence measurement as described in pharmacokinetic studies. […] [sequence] assay optimization experiments were completed at 100, 300, 1560, and 6250 nM dNTP concentration.
Fluorescence from [sequence] assay data was normalized to allow comparison of data points gathered at different dNTP concentrations as follows,
HIV-negative, human whole blood (BioIVT, Westbury, N.Y.) was diluted in nuclease-free water (3098, Sigma) to lyse RBCs and reduce unwanted inhibition of RT activity by blood components such as immunoglobulins. Blood was mixed with the water by vortexing and incubating for 5 minutes to lyse RBCs.
Five μL of TFV-DP were spiked in 2% blood to 35 μL of master mix so that the final concentration of blood in the [sequence] assay was 0.25%. […]

Series [2] deals with T1, HIV-1 RT. The series can be described thus: RESTRICT assay with TFV-DP in buffer at different dNTP concentrations. Type of series: biochemical. As to conditions: 100, 300, 1560, 6250 nM dNTP, fixed 50 to 1 dNTP to template. How it is done: Optimal assay conditions were determined for RT activity in order to minimize assay time and reagent concentration, using RT enzyme obtained through the NIH AIDS Reagent Program, Division of AIDS, NIAID, NIH (Le Grice, S. F. J.; et al., Purification and Characterization of Human Immunodeficiency Virus Type 1 Reverse Transcriptase. In Methods in Enzymology; DNA Replication; Academic Press, 1995, 262, 130-144). Reactions were carried out in a buffer containing: 60 mM Tris (77-86-1, Sigma), 30 mM KCl (7447-40-7, Sigma), 8 mM MgCl2 (7786-30-3, Sigma), and 10 mM dithiothreitol (20-265, Sigma) buffered to pH 8.0 using HCl (7647-01-0, Acros Organics).
The DNA template has a 20 nt primer binding site complementary to the M13 phage DNA primer AGAGTTTGATCCTGGCTCAG (Catalog, Integrated DNA Technologies, Coralville, Iowa), set forth herein as SEQ ID NO:1, followed by TTCA repeats with a total template length of 200 nt. The DNA template was designed using NUPACK software (Zadeh, J. N. et al., NUPACK: Analysis and Design of Nucleic Acid Systems. J. Comput. Chem. 2011, 32 (1), 170-173) to preferentially include T bases because TFV-DP is a deoxyadenosine triphosphate (dATP) analog and thus will bind to T's in the DNA template. […]
Fluorescence from RESTRICT assay data was normalized to allow comparison of data points gathered at different dNTP concentrations as follows, […]

The target in series [3] is T1, HIV-1 RT. The series can be described thus: RESTRICT assay on whole blood of study participants (clinical samples). The class given is biochemical. The text has this:
The RESTRICT assay detects TFV-DP drug concentrations based on its mechanism of action on HIV RT. See examples above and Olanrewaju AO, et al. An enzymatic assay for rapid measurement of antiretroviral drug levels. ACS Sens. April 2020. TFV-DP causes chain termination when HIV RT synthesizes viral double stranded DNA (dsDNA). The RESTRICT assay provides all the reagents required for dsDNA synthesis—a DNA template, primers, nucleotides, recombinant HIV RT enzyme, and appropriate buffers—and measures TFV-DP concentrations in a patient's blood using intercalating fluorescence dyes based on the extent of DNA synthesis. At low TFV-DP concentrations, full-length dsDNA is formed and binds to many intercalating dye molecules resulting in high fluorescence. Meanwhile, at high TFV-DP concentrations, DNA chain termination occurs resulting in dsDNA fragments that bind to few intercalating dye molecules resulting in low fluorescence. Thus, the fluorescence readout from the RESTRICT assay was used to estimate TFV-DP concentration in a patient's blood. […]
The RESTRICT assay was completed in 5 simple steps. […] Then 5 μL of 100 nM of HIV-1 RT was added to initiate the assay which was incubated at 37° C. for 30 min in a microplate reader (SpectraMax iD3, Molecular Devices). […]

The conditions of series [4]: in vivo.
The conditions of series [5]: cited from earlier work.

Turning to `CC(Cn1cnc2c(N)ncnc21)OCP(=O)(O)OP(=O)(O)OP(=O)(O)O` (stereo in doubt) [TFV-DP, tenofovir diphosphate], the “Normalized fluorescence (%)” value on HIV-1 RT [1] (TFV-DP 85.4 nM (16.9 fmol/10^6 RBCs, low adherence, 1 dose per week)) is recorded as 89.0%; on HIV-1 RT [1] (TFV-DP 768 nM (152.3 fmol/10^6 RBCs, high adherence, 7 doses per week)), 57.5%. Moreover, the “IC50 of inhibition curve as dNTP concentration increases” value at HIV-1 RT [2] is “shift right, towards higher IC50 values”. Moreover, the “Median fluorescence, RESTRICT assay” value was 51.3% at HIV-1 RT [3] (samples containing <700 fmol/punch TFV-DP (N=14)) and 31.9% at HIV-1 RT [3] (samples containing ≥700 fmol/punch TFV-DP (N=4)). For the same compound, in series [4], the “clinical range for TFV-DP adherence, concentration in whole blood” value lay within 75 to 850 nM. Besides, the “Median TFV-DP concentrations in RBCs” value in series [5] (depending on adherence, LC/MS) was 15-170 fmol/10^6 RBCs. Besides, the “accumulation in red blood cells (RBCs)” value in series [5] (in vivo) is on record as 25 fold. For the same compound, the half-life in series [5] (red blood cells) is given as 17 days.

In the case of `C[C@H](Cn1cnc2c(N)ncnc21)OCP(=O)(O)O` [TFV, tenofovir], the half-life in series [5] (plasma) is 0.625 days and 0.708 days. In addition, in series [5] (urine), the “detectable for up to” value is listed as no more than 7 days.

A word on the half-life: it is the time in which the quantity being followed falls by half.
